In PubChem BioAssay AID220 (DTP/NCI, 2004):
Values joined by “and” are separate entries in the source; they are usually repeats but may differ in a detail not shown here. Identical values can stand only once. Results filed as inconclusive are left out.

Test system: CD8F1 mice, subcutaneous mammary adenocarcinoma, T/C%
Assay: NCI In Vivo Anticancer Drug Screen. Data for tumor model Mammary Adenocarcinoma CD8F1 (subcutaneous) in CD8F1
Conditions: higher = larger tumour
Description: The antitumor activity of compounds was measured in mice bearing transplantable tumors. Survival or tumor size were measured and the results are expressed as the measurement made in the treated group (T) divided by the measurement made in the vehicle treated control group (C). The tumor model used in this assay is Mammary Adenocarcinoma CD8F1 (subcutaneous) in CD8F1

[1] = endpoint: median tumor weight change, dose: 100.0 mg/kg/injection, schedule: Q01DX001 (ip), vehicle: saline with Tween-80
[2] = endpoint: median tumor weight change, dose: 200.0 mg/kg/injection, schedule: Q01DX001 (ip), vehicle: saline with Tween-80
[3] = endpoint: median tumor weight change, dose: 250.0 mg/kg/injection, schedule: Q01DX001 (ip), vehicle: saline with Tween-80
[4] = endpoint: median tumor weight change, dose: 500.0 mg/kg/injection, schedule: Q01DX001 (ip), vehicle: saline with Tween-80
[5] = endpoint: median tumor weight (est.), dose: 12.5 mg/kg/injection, schedule: Q07DX005 (ip), vehicle: saline with Tween-80

CCN(CC)CCN1C(=O)C2C3C=CC(C2C1=O)C1C2C(=O)N(CCN(CC)CC)C(=O)C2C31 (stereo not given)
T/C (endpoint: median tumor weight change, dose: 15.62 mg/kg/injection, schedule: Q01DX001 (ip), vehicle: water): 106 % of control | T/C (endpoint: median tumor weight change, dose: 31.25 mg/kg/injection, schedule: Q01DX001 (ip), vehicle: water): 111 % of control | T/C (endpoint: median tumor weight change, dose: 62.5 mg/kg/injection, schedule: Q01DX001 (ip), vehicle: water): 88 % of control | T/C (endpoint: median tumor weight change, dose: 125.0 mg/kg/injection, schedule: Q01DX001 (ip), vehicle: water): 92 % of control

CCCN1COC(OCC)C(C)(C)C1 (stereo not given)
T/C (endpoint: median tumor weight change, dose: 50.0 mg/kg/injection, schedule: Q01DX001 (ip), vehicle: saline with Tween-80): 102 % of control | T/C [1]: 85 % of control | T/C (endpoint: median tumor weight change, dose: 125.0 mg/kg/injection, schedule: Q01DX001 (ip), vehicle: saline with Tween-80): 66 % of control | T/C [2]: 84 % of control | T/C [3]: 47 % of control | T/C [4]: 47 % of control

Cc1ccc(NCCN(C)C)c2c(=O)c3cc(O)ccc3sc12
T/C (endpoint: median tumor weight change, dose: 250.0 mg/kg/injection, schedule: Q01DX001 (ip), vehicle: Klucel (hydroxypropylcellulose) (HPC)): -8 % of control and 15 % of control | T/C (endpoint: median tumor weight change, dose: 500.0 mg/kg/injection, schedule: Q01DX001 (ip), vehicle: Klucel (hydroxypropylcellulose) (HPC)): -6 % of control

Nc1c(C(=O)O)[nH]c(=O)[nH]c1=O
T/C [5]: 83 % of control

CCN1/C(=C/C=C/C=C\C=C\c2sc3ccc4ccccc4c3[n+]2CC)Sc2ccc3ccccc3c21
T/C (endpoint: median tumor weight change, dose: 25.0 mg/kg/injection, schedule: Q01DX001 (ip), vehicle: saline with Tween-80): 70 % of control and 76 % of control | T/C [1]: 32 % of control and 53 % of control | T/C [2]: 69 % of control

COC1=C(OC)C(=O)C(Sc2ccc3ccccc3c2)=CC1=O
T/C [5]: 115 % of control | T/C (endpoint: median tumor weight (est.), dose: 25.0 mg/kg/injection, schedule: Q07DX005 (ip), vehicle: saline with Tween-80): 84 % of control | T/C (endpoint: median tumor weight (est.), dose: 50.0 mg/kg/injection, schedule: Q07DX005 (ip), vehicle: saline with Tween-80): 122 % of control | T/C (endpoint: median tumor weight (est.), dose: 200.0 mg/kg/injection, schedule: Q07DX005 (ip), vehicle: saline with Tween-80): 92 % of control

N=[N+]=CC(=O)CCC(NC(=O)C(CCC(=O)C=[N+]=N)NC(=O)CCC(N)C(=O)O)C(=O)O (stereo not given)
T/C (endpoint: median tumor weight (est.), dose: 3.12 mg/kg/injection, schedule: Q07DX004 (ip), vehicle: clinical formulation): 34 % of control | T/C (endpoint: median tumor weight (est.), dose: 6.25 mg/kg/injection, schedule: Q07DX004 (ip), vehicle: clinical formulation): 123 % of control | T/C (endpoint: median tumor weight (est.), dose: 12.5 mg/kg/injection, schedule: Q07DX004 (ip), vehicle: clinical formulation): 50 % of control | T/C (endpoint: median tumor weight (est.), dose: 25.0 mg/kg/injection, schedule: Q07DX004 (ip), vehicle: clinical formulation): 22 % of control | T/C (endpoint: median tumor weight (est.), dose: 50.0 mg/kg/injection, schedule: Q07DX004 (ip), vehicle: clinical formulation): 15 % of control | T/C (endpoint: median tumor weight (est.), dose: 100.0 mg/kg/injection, schedule: Q07DX004 (ip), vehicle: clinical formulation): 12 % of control

O=C1C(NCCO)=C(N2CC2)C(=O)C(NCCO)=C1N1CC1
T/C (endpoint: median tumor weight change, dose: 0.62 mg/kg/injection, schedule: Q01DX001 (ip), vehicle: saline): 73 % of control | T/C (endpoint: median tumor weight change, dose: 0.63 mg/kg/injection, schedule: Q01DX001 (ip), vehicle: saline): 36 % of control | T/C (endpoint: median tumor weight change, dose: 5.0 mg/kg/injection, schedule: Q01DX001 (ip), vehicle: saline): 25 % of control

C[N+](C)(C)c1ncnc2nc[nH]c12
T/C (endpoint: median tumor weight (est.), dose: 25.0 mg/kg/injection, schedule: Q07DX005 (ip), vehicle: saline): 194 % of control | T/C (endpoint: median tumor weight (est.), dose: 100.0 mg/kg/injection, schedule: Q07DX005 (ip), vehicle: saline): 259 % of control | T/C (endpoint: median tumor weight (est.), dose: 200.0 mg/kg/injection, schedule: Q07DX005 (ip), vehicle: saline): 186 % of control

N=c1c(C(=O)OCc2ccccc2)ncc(CCl)n1O
T/C [3]: 78 % of control and 94 % of control | T/C [4]: 80 % of control and 82 % of control | T/C (endpoint: median tumor weight change, dose: 1000.0 mg/kg/injection, schedule: Q01DX001 (ip), vehicle: saline with Tween-80): 65 % of control and 81 % of control
